According to ChEMBL document CHEMBL1201862, “PubChem BioAssay data set” (2004):
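96-well plates; 48 h exposure; 5 concentrations. Endpoints by linear interpolation between flanking doses. Not reached: highest tested concentration assigned. The concentration for 50% growth inhibition is given as GI50.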 Active and inactive are the calls of the source. No stated cut-off is given here; in the data, active = GI50 up to about 1.1 µM and inactive = higher.

Assays:
Experiment in all cases: growth of human tumour cells (NCI), 48 h
T47D = test system: T47D
MDA-MB-435 = test system: MDA-MB-435
NCI/ADR-RES = test system: NCI/ADR-RES
MDA-MB-231 = test system: MDA-MB-231
DU-145 = test system: DU-145
HOP-92 = test system: HOP-92
MDA-N = test system: MDA-N
MCF7 = test system: MCF7
Malme-3M = test system: Malme-3M
Hs-578T = test system: Hs-578T
BT-549 = test system: BT-549
A498 = test system: A498
SF-295 = test system: SF-295
PC-3 = test system: PC-3
SNB-75 = test system: SNB-75
RXF 393 = test system: RXF 393
NCI-H522 = test system: NCI-H522
UACC-257 = test system: UACC-257
XF498 = test system: XF498
SNB-78 = test system: SNB-78

Measured: GI50

CSc1ccccc1P(c1ccccc1SC)c1ccccc1SC
inactive: T47D 2.62 µM | MDA-MB-435 > 100 µM | NCI/ADR-RES > 100 µM | MDA-MB-231 > 100 µM | DU-145 > 100 µM | HOP-92 > 100 µM | MDA-N > 100 µM | MCF7 > 100 µM | Malme-3M > 100 µM | Hs-578T 98.2 µM | BT-549 > 100 µM | A498 > 100 µM | SF-295 > 100 µM

O=S1(=O)C[C@H](NCc2ccccc2)[C@H](NCc2ccccc2)C1
inactive: T47D 30.8 µM | MDA-MB-435 > 100 µM | PC-3 56.5 µM | SNB-75 > 100 µM | NCI/ADR-RES 61.5 µM | RXF 393 > 100 µM | MDA-MB-231 > 100 µM | DU-145 > 100 µM | HOP-92 > 100 µM | NCI-H522 17.6 µM | UACC-257 > 100 µM | MDA-N > 100 µM | MCF7 83.8 µM | Malme-3M > 100 µM | Hs-578T 73.3 µM | BT-549 94.2 µM | SF-295 > 100 µM

COC(=O)C1=C(O)C(C(=O)OC)[C@@]2(O)[C@@H](C(=O)OC)[C@H](C)C[C@@H]1[C@@H]2C(=O)OC (some centres undefined)
inactive: T47D 46.8 µM | MDA-MB-435 14.7 µM | SNB-75 22.9 µM | RXF 393 15.4 µM | MDA-MB-231 14.1 µM | DU-145 20.2 µM | NCI-H522 25.2 µM | UACC-257 63.1 µM | MDA-N 15.2 µM | MCF7 34.8 µM | Malme-3M 42.9 µM | Hs-578T 19.9 µM | BT-549 32.9 µM | A498 15.5 µM

COc1ccc(N2C(=O)C3c4[nH]c5ccc(F)cc5c4C4CCC(C(C)(C)C)CC4C3C2=O)cc1 (centres undefined)
inactive: T47D 9.25 µM | MDA-MB-435 > 10 µM | PC-3 7.33 µM | SNB-75 1.84 µM | NCI/ADR-RES 9.08 µM | RXF 393 > 10 µM | MDA-MB-231 > 10 µM | DU-145 > 10 µM | NCI-H522 6.87 µM | MDA-N > 10 µM | MCF7 > 10 µM | Malme-3M > 10 µM | Hs-578T 2.81 µM | A498 > 10 µM | SF-295 6.04 µM

Cc1cc(C)c(-n2[nH]c(=O)n(C)c2=O)c(C)c1
inactive: T47D > 100 µM | MDA-MB-435 > 100 µM | PC-3 > 100 µM | SNB-75 > 100 µM | NCI/ADR-RES > 100 µM | RXF 393 > 100 µM | MDA-MB-231 > 100 µM | DU-145 > 100 µM | NCI-H522 > 100 µM | UACC-257 > 100 µM | MDA-N > 100 µM | MCF7 > 100 µM | Malme-3M > 100 µM | Hs-578T > 100 µM | BT-549 > 100 µM | A498 > 100 µM

CCOC(=O)C(=O)Nc1c(CC)cccc1C(C)CC (centres undefined)
inactive: SNB-75 > 100 µM | RXF 393 > 100 µM | HOP-92 > 100 µM | NCI-H522 > 100 µM | XF498 > 100 µM | UACC-257 > 100 µM | Malme-3M > 100 µM | SNB-78 > 100 µM | A498 > 100 µM | SF-295 > 100 µM

CCOC(=O)c1csc(NC(=O)CN2CCCCC2)n1
inactive: T47D > 100 µM | MDA-MB-435 > 100 µM | PC-3 > 100 µM | SNB-75 > 100 µM | NCI/ADR-RES > 100 µM | RXF 393 > 100 µM | MDA-MB-231 > 100 µM | DU-145 > 100 µM | HOP-92 > 100 µM | UACC-257 > 100 µM | MDA-N > 100 µM | MCF7 > 100 µM | Hs-578T > 100 µM | A498 > 100 µM | SF-295 > 100 µM

O=C1CC2CC3OC3[C@H]3c4cc5c(cc4C(=O)N1C23)OCO5 (some centres undefined)
inactive: HOP-92 > 100 µM | NCI-H522 > 100 µM | XF498 > 100 µM | Malme-3M > 100 µM | SF-295 > 100 µM

CC(C)(C)N(Cc1ccoc1)C(=O)/C=C\[S+]([O-])c1ccccc1 (centres undefined)
inactive: T47D 14.6 µM | MDA-MB-435 6.79 µM | PC-3 10.6 µM | NCI/ADR-RES 21.2 µM | MDA-MB-231 20.2 µM | DU-145 12.5 µM | HOP-92 15 µM | NCI-H522 17.5 µM | UACC-257 19.9 µM | MDA-N 11.5 µM | MCF7 15.6 µM | Hs-578T 28.4 µM | BT-549 10.7 µM | A498 31 µM | SF-295 29.9 µM

NCc1ccccc1-c1c2nc(c(-c3ccccc3CN)c3ccc([nH]3)c(-c3ccccc3CN)c3nc(c(-c4ccccc4CN)c4ccc1[nH]4)C=C3)C=C2
inactive: SNB-75 5.96 µM | RXF 393 13.1 µM | HOP-92 7.08 µM | UACC-257 20.3 µM | SNB-78 16.7 µM

COc1c(OC)c(OC)c2c(c1OC)c(=O)c1ccccc1n2C [MELICOPICINE]
inactive: T47D 54.3 µM | MDA-MB-435 > 100 µM | PC-3 > 100 µM | SNB-75 > 100 µM | NCI/ADR-RES 73.5 µM | MDA-MB-231 > 100 µM | DU-145 > 100 µM | HOP-92 > 100 µM | NCI-H522 > 100 µM | UACC-257 > 100 µM | MDA-N > 100 µM | MCF7 > 100 µM | Hs-578T > 100 µM | BT-549 > 100 µM | A498 > 100 µM | SF-295 > 100 µM

CCCCCCCCCCCCCCCCCCN(C)CC(COP(=O)([O-])OCC[N+](C)(C)C)OC (centres undefined)
inactive: T47D > 80.7 µM | MDA-MB-435 > 46.9 µM | PC-3 18.1 µM | SNB-75 5.93 µM | NCI/ADR-RES > 64 µM | RXF 393 3.4 µM | MDA-MB-231 57.1 µM | DU-145 31.5 µM | HOP-92 9.77 µM | NCI-H522 9.51 µM | XF498 14 µM | UACC-257 35.3 µM | MDA-N > 100 µM | MCF7 29.4 µM | Malme-3M 26.7 µM | Hs-578T > 46.1 µM | SNB-78 6.32 µM | BT-549 38.5 µM | A498 13.6 µM | SF-295 7.83 µM

CCCCOc1ccc2c(c1)CC[C@@H]1[C@@H]2CC[C@]2(C)C(=O)N(CCCC)C(=O)C[C@@H]12
inactive: T47D > 100 µM | MDA-MB-435 > 100 µM | PC-3 25.1 µM | SNB-75 > 100 µM | NCI/ADR-RES > 100 µM | MDA-MB-231 > 100 µM | DU-145 > 100 µM | HOP-92 > 100 µM | NCI-H522 > 100 µM | MDA-N > 100 µM | MCF7 > 100 µM | Malme-3M > 100 µM | Hs-578T > 100 µM | BT-549 87.9 µM | A498 > 100 µM | SF-295 > 100 µM

O=C(/C=C1\Nc2ncccc2N=C1CC(=O)c1ccccc1)c1ccccc1
inactive: T47D 9.31 µM | MDA-MB-435 5.93 µM | PC-3 10.1 µM | SNB-75 20.4 µM | NCI/ADR-RES 4.56 µM | MDA-MB-231 10.6 µM | DU-145 12.9 µM | HOP-92 3.52 µM | NCI-H522 11 µM | UACC-257 65.6 µM | MDA-N 7.52 µM | MCF7 3.61 µM | Malme-3M 37.4 µM | Hs-578T 15.6 µM | BT-549 2.71 µM | A498 7.35 µM | SF-295 4.44 µM
